Test results from US20190321355A1, “TREATMENT OF MENTAL, MOVEMENT AND BEHAVIORAL DISORDERS” (priority 2016, published 2019).
pKi: −log10 of the molar value. Structures can show the parent of a compound that is named as a salt. Where two headings read alike, the source gives them in different places.

Columns and labels:
C57BL/6JOlaHsd mice [1] = format: in vivo; conditions: for DOI-induced repetitive head twitches: dose not given
[2] = test system: CB2 receptor knockout mice; assay: DOI-induced head twitch response (HTR) in CB2 receptor knockout mice; format: in vivo
Procedure: (§1) • 1. CB2 receptor selective ligands or CB2/SERM ligands were injected intraperitoneally or orally at doses of 0.001 to 100 mg/kg one to two hours before the injection of DOI. In order to test the effect of DOI on head twitch responses, ear scratch and grooming responses, DOI was intraperitoneally injected at a dose of 1 mg/kg.
(§2) After DOI or saline injection, mice were placed in a transparent glass cage 30×40×31 cm divided into squares of 7.5×7.5 cm. Head twitch responses (HTRs) were manually counted by an observer. The HTR in mice is a distinctive behavior that cannot be misplaced with other head movements. After 5 min habitation to the cage the HTR were counted every 3 min for 15 min (a total of 20 min in the cage).
(§3) With a view to further study the effect of the MH compositions on repetitive behavior, CB2 receptor knockout mice (The Jackson Laboratory) were intraperitoneally injected at age 3 weeks or 6 weeks with a single dose of MH at 0.2-50 mg/kg or equivalent vehicle. One hour later mice were intraperitoneally injected a single dose of 1 mg/kg DOI or saline. HTR responses, grooming and ESR responses in mice were recorded.
as §3, with “HU-308” for “MH”, “6-21” for “6”, “responses” for “responses, grooming”

C57BL/6JOlaHsd mice [3] = assay: DOI-induced ear scratch response (ESR) / urge-like behavior; format: in vivo
Procedure: as §1
(§4) ESR behavior is a measure for urge-like behavior and often preceded HTRs. The ESR is a rapid scratching movement of the head, neck, ears, or other body surfaces by either hindlimbs. The number of ESRs was manually counted. Every ESR was also counted as a grooming. In some experiments, each ESR was considered as a separate episode if the animal moved. In some experiments, each ESR was considered as a separate episode for every ESR.
as §3, with “In order” for “With a view”, “C57BL/6JOlaHsd” for “CB2 receptor knockout”, “mice” for “mice (The Jackson Laboratory)”, “responses” for “responses, grooming”

C57BL/6JOlaHsd mice [4] = assay: Head twitch response after drug alone (saline instead of DOI); format: in vivo
Procedure: as §2
(§5) With a view to further study the effect of the MH compositions on repetitive behavior, C57BL/6JOlaHsd mice were intraperitoneally injected at age 3 weeks or 6 weeks with a single dose of MH at 0.2-50 mg/kg or equivalent vehicle. Optionally, one hour later mice received a single injection of saline (i.e. in the absence of DOI to test the effect of MH alone). HTR responses, ESR and grooming responses in mice were recorded.
as §5, with “HU-308” for “MH”, “weeks” for “weeks or 6 weeks”, “vehicle” for “vehicle. Optionally,”, “responses and” for “responses,”, “ESR” for “ESR and grooming”

C57BL/6JOlaHsd mice [5] = assay: ESR/grooming (urge-like response) after drug alone; format: in vivo; conditions: doses 1-20 mg/kg i.p., age 6 weeks, no DOI
Source text: as §4
Grooming behavior is a measure for anxiety. Grooming behavior in mice is characterized by licking its fur, groom with the forepaws, or scratch with any limb. Often the mouse will mix all of these grooming behaviors. The number of grooms was manually counted. In some experiments, each grooming behavior was considered as a separate episode if the animal moved its hindlimbs. In some experiments, each grooming behavior was considered as a separate episode for every grooming behavior.
as §5

Sabra mice = assay: Ultrasonic vocals, SR141716A-induced vocal tic-like behavior; format: in vivo
C57BL/6JOlaHsd mice [6] = assay: Marble burying test (compulsive behavior); format: in vivo; conditions: age 6 weeks, one hour after a single injection
Procedure: Mice were habituated to the test room for 1 h. A mouse was injected with DOI as above and then placed in the experimental cage (white plastic 36×24.5 ×14.5 cm) filled with 5 cm sawdust for 5 min, in the absence of marbles. The mouse was taken out and twenty black glass were arranged 4 by 5 with 7 cm apart and 1 cm apart from the wells of the cage. Each mouse was tested for its marble burying activity for 30 min. Activity was videotaped with EthoVision and buried marbles were counted manually at the end of the experiment (after 30 min). A marble considered as buried when it was sawdust-covered by two third of its volume. Marbles that were moved were also counted.
With a view to study the effect of the JTE-907 and M1 compositions on repetitive behavior, C57BL/6JOlaHsd mice were intraperitoneally injected at age 6 weeks with a single dose of JTE-907 at 0.2-50 mg/kg, M1 at 0.2-50 mg/kg or equivalent vehicle. The number of buried marbles in the burying marble test by each mouse was recorded.

CB2 receptor = CB2 receptor (Homo sapiens, UniProt P34972); conditions: Schuehly et al. 2011; read-out: Ki, CB2 receptor ligand; cited from earlier work
Sequence of CB2 receptor (P34972 whole entry): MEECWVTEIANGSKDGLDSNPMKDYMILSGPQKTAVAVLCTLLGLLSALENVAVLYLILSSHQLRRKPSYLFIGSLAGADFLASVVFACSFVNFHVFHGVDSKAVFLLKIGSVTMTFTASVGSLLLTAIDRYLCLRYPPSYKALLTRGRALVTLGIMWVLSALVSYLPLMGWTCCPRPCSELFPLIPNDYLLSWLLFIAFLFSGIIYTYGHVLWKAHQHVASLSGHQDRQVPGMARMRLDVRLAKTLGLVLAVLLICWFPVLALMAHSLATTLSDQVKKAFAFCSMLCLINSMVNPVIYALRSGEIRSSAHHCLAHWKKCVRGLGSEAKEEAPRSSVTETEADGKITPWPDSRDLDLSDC

[7] = 5 mg/kg during postnatal days 5-13; U.S. Pat. No. 9,486,419; cited from earlier work
[8] = 5 mg/kg i.p., age 3 weeks, one hour before DOI 1 mg/kg
[9] = 10 mg/kg i.p. single dose, age 3 weeks, one hour before DOI 1 mg/kg i.p.
[10] = 0.2 mg/kg i.p., age 3 weeks, one hour before DOI

Structure (SMILES): C=CCc1ccc(O)c(-c2ccc(OC)c(CC=C)c2)c1 [MH, 2-(4-Methoxy-3-prop-2-enylphenyl)-4-prop-2-enylphenol]
- DOI-induced HTRs (C57BL/6JOlaHsd mice [1]; 1 mg/kg i.p., age 3 weeks, one hour before DOI 1 mg/kg): reduced
- DOI-induced HTRs (C57BL/6JOlaHsd mice [1]; 1 mg/kg i.p., age 6 weeks, one hour before DOI 1 mg/kg): reduced
- DOI-induced HTR frequency (C57BL/6JOlaHsd mice [1]; 1 mg/kg oral (gavage) in self-emulsifying oral formulation, age 3 weeks, two hours before DOI 1 mg/kg i.p.): significantly reduced
- DOI-induced HTR frequency (C57BL/6JOlaHsd mice [1]; [8]): reduced
- DOI-induced HTRs (C57BL/6JOlaHsd mice [1]; 5 mg/kg i.p., age 6 weeks, one hour before DOI 1 mg/kg): reduced
- DOI-induced HTR frequency (C57BL/6JOlaHsd mice [1]; 5 mg/kg oral (gavage) in self-emulsifying oral formulation, age 3 weeks, two hours before DOI 1 mg/kg i.p.): significantly reduced
- effect to reverse DOI-induced HTR, age 3 weeks vs 6 weeks (C57BL/6JOlaHsd mice [1]; i.p., after 20 min from DOI injection): higher at age 3 weeks than 6 weeks
- effect on DOI-induced HTR frequency, 1 mg/kg vs 5 mg/kg (C57BL/6JOlaHsd mice [1]; oral formulation, age 3 weeks): greater than this of 5 mg/kg
- DOI-induced HTR frequency in CB2 receptor knockout mice ([2]; mouse, in vivo): did not reduce
- frequency of DOI-induced ESR behavior (C57BL/6JOlaHsd mice [3]; i.p., one hour before DOI 1 mg/kg): reduced
- HTR, drug alone (C57BL/6JOlaHsd mice [4]; doses 1-20 mg/kg i.p., age 6 weeks, no DOI): did not induce HTR at any dose
- urge-like response (grooming/ESR), drug alone (C57BL/6JOlaHsd mice [5]): did not induce urge-like response at any dose
- vocal tic-like behavior (number of ultrasonic vocal events) (Sabra mice; SR141716A 5 mg/kg s.c. postnatal day 1-3, drug s.c. at age 13 days, one hour before recording): significantly reduces
- number of buried marbles (C57BL/6JOlaHsd mice [6]; 10 mg/kg i.p.): reduced
- pKi (CB2 receptor): 7.30

Structure (SMILES): COc1cc(CC(C)N)c(OC)cc1I.Cl (single isomer, unassigned; (-)) [DOI, (−)-1-(2,5-dimethoxy-4-iodophenyl)-2-aminopropane hydrochloride]
- HTR frequency, model mice (DOI) vs control mice (C57BL/6JOlaHsd mice [1]; DOI 1 mg/kg i.p., age 3 weeks): increased
- HTR frequency in CB2 receptor knockout mice after DOI ([2]; DOI 1 mg/kg i.p., age 6 weeks): increased
- ESR frequency, DOI vs control mice (C57BL/6JOlaHsd mice [3]; DOI 1 mg/kg i.p.): increased

Structure (SMILES): O=C(c1ccc(OCCN2CCCCC2)cc1)c1c(-c2ccc(O)cc2)sc2cc(O)ccc12 [raloxifene]
- DOI-induced HTR frequency (C57BL/6JOlaHsd mice [1]; [9]): reduced

Structure (SMILES): Cc1c(C(=O)NN2CCCCC2)nn(-c2ccc(Cl)cc2Cl)c1-c1ccc(Cl)cc1 [SR141716A]
- vocalization vs control litter mates (Sabra mice; administered to mice pups at the age of one to two days): higher level of vocalization and/or higher number of vocals

Structure (SMILES): CCN(CC)CCOc1ccc(C(=C(Cl)c2ccccc2)c2ccccc2)cc1 [clomiphene citrate]
- DOI-induced HTR frequency (C57BL/6JOlaHsd mice [1]; [9]): did not significantly reverse

Structure (SMILES): CCCCCOc1c(OC)ccc2cc(C(=O)NCc3ccc4c(c3)OCO4)c(=O)[nH]c12 [JTE-907, N-(benzo[1,3]dioxol-5-ylmethyl)-7-methoxy-2-oxo-8-pentyloxy-1,2-dihydroquinoline-3-carboxamide]
- DOI-induced HTR frequency (C57BL/6JOlaHsd mice [1]; [10]): reduced
- DOI-induced HTR frequency (C57BL/6JOlaHsd mice [1]; [8]): reduced
- number of buried marbles (C57BL/6JOlaHsd mice [6]; 5 mg/kg i.p.): reduced

Structure (SMILES): C=C1CC/C=C(\C)CC[C@@H]2[C@@H]1CC2(C)C [BCP, beta-caryophyllene]
- DOI-induced repetitive head twitches (C57BL/6JOlaHsd mice [1]): able to reduce

Structure (SMILES): CCCCCCC(C)(C)c1cc(OC)c([C@@H]2C=C(CO)[C@@H]3C[C@H]2C3(C)C)c(OC)c1 [HU-308, [(1R,2R,5R)-2-[2,6-dimethoxy-4-(2-methyloctan-2-yl)phenyl]-7,7-dimethyl-4-bicyclo[3.1.1]hept-3-enyl] methanol]
- DOI-induced HTR frequency (C57BL/6JOlaHsd mice [1]; [10]): reduced
- DOI-induced HTR frequency (C57BL/6JOlaHsd mice [1]; [8]): reduced
- DOI-induced repetitive head twitches (C57BL/6JOlaHsd mice [1]): able to reduce
- DOI-induced HTR frequency in CB2 receptor knockout mice ([2]; 5 mg/kg i.p., male, age 6-21 weeks, DOI 1 mg/kg): significantly reduces
- repetitive behavior (HTR), drug alone (C57BL/6JOlaHsd mice [4]; 0.2 mg/kg i.p., age 3 weeks, saline instead of DOI): significantly increased
- motor tics/head twitches at the age of 12 weeks, open field test [7]: induce abnormal motor tics/head twitches
